Test results published in patent US10059701B2 (Merck Patent GmbH, priority 2015, dated 2018).

Experiments:
IRAK1 = target: T1, IRAK1 (Homo sapiens, UniProt P51617); test: IRAK1 enzymatic assay (ADP-Glo luminescence); assay type: biochemical; settings: purified human recombinant His-TEV-IRAK1 (194-712)
T1 construct: His-TEV-IRAK1 (194-712); His (N); TEV cleavage site (N)
Procedure, shortened: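 Recombinant human His-TEV-IRAK1 (194-712), 0.3 μg/ml, preincubated 15 min at RT with compounds (10 μM to 0.5 nM) in 50 mM Hepes pH 7.0, 10 mM MgCl2, 2 mM DTT, 0.1% BSA. ATP-started reaction run 2 hours at RT; ADP formed from ATP hydrolysis/autophosphorylation read by ADP-Glo luminescence.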

IRAK4 = target: T2, IRAK4 (Homo sapiens, UniProt Q9NWZ3); test: IRAK4 enzymatic assay (ADP-Glo luminescence); assay type: biochemical; settings: purified human recombinant His-TEV-IRAK4 (1-460), ATP 2 μM
T2 construct: His-TEV-IRAK4 (1-460); His (N); TEV cleavage site (N)
T2 sequence (Q9NWZ3 1-460): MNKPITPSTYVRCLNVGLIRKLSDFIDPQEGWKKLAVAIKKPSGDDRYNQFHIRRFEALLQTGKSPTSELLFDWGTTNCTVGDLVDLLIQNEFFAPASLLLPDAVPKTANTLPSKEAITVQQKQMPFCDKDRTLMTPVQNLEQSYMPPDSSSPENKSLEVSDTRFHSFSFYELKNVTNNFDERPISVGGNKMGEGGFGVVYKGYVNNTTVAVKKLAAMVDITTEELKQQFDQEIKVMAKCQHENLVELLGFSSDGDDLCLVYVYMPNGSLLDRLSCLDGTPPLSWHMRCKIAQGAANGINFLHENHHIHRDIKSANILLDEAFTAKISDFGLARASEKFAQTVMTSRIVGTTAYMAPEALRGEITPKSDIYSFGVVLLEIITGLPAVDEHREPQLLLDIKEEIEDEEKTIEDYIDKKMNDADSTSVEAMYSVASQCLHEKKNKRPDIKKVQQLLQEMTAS
Procedure, shortened: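 Recombinant His-TEV-IRAK4 (1-460) at 0.3 μg/ml preincubated 15 min at RT with compounds (10 μM to 0.5 nM) in Hepes pH 7.0 buffer with MgCl2/MnCl2. Reaction started with 2 μM ATP and 300 nM STK1-biotin peptide, run 2 h at RT. ADP formed read by ADP-Glo luminescence.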

T1 sequence (P51617 194-712): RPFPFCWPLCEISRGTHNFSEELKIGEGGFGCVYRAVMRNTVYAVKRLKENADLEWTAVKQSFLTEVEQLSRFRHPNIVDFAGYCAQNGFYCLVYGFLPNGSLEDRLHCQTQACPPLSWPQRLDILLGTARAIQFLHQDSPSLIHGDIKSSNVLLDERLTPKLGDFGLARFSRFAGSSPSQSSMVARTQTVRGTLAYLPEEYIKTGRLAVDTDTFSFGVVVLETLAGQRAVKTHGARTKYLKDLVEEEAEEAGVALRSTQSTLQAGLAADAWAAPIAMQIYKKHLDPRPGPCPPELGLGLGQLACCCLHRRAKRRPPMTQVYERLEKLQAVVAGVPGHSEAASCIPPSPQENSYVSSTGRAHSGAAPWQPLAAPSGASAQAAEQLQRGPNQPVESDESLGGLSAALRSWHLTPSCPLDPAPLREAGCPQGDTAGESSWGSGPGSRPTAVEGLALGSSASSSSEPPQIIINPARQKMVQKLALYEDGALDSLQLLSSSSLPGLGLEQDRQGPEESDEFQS

Row | SMILES | IC50 (IRAK1) [nM] | IC50 (IRAK4) [nM]
1 | COc1cc2c(cc1N1CCCOC1=O)[nH]/c(=N\C(=O)c1cccc(C(F)F)c1)n2CCCO [Example 207, (E)-3-(difluoromethyl)-N-(1-(3-hydroxypropyl)-6-methoxy-5-(2-oxo-1,3-oxazinan-3-yl)-1H-benzo[d]imidazol-2(3H)-ylidene)benzamide] | ≤ 100 | ≤ 100
2 | O=C(/N=c1\[nH]c2cc(N3CCOCC3=O)c(C3CC3)cc2n1CCCO)c1cccc(C(F)(F)F)c1 [Example 208, (E)-N-(6-cyclopropyl-1-(3-hydroxypropyl)-5-(3-oxomorpholino)-1H-benzo[d]imidazol-2(3H)-ylidene)-3-(trifluoromethyl)benzamide] | ≤ 100 | ≤ 100
3 | O=C(/N=c1\[nH]c2cc(N3CCOCC3=O)c(C3CC3)cc2n1CCCO)c1cccc(C(F)F)c1 [Example 209, (E)-N-(6-cyclopropyl-1-(3-hydroxypropyl)-5-(3-oxomorpholino)-1H-benzo[d]imidazol-2(3H)-ylidene)-3-(difluoromethyl)benzamide] | ≤ 100 | ≤ 100
4 | O=C(/N=c1\[nH]c2cc(N3CCOCC3=O)cc(F)c2n1CCCO)c1cccc(C(F)(F)F)c1 [Example 210, (E)-N-(7-fluoro-1-(3-hydroxypropyl)-5-(3-oxomorpholino)-1H-benzo[d]imidazol-2(3H)-ylidene)-3-(trifluoromethyl)benzamide] | 100 to 1000 | ≤ 100
5 | O=C(/N=c1\[nH]c2cc(N3CCOCC3=O)c(OC(F)F)cc2n1CCCO)c1cccc(C(F)(F)F)c1 [Example 211, (E)-N-(6-(difluoromethoxy)-1-(3-hydroxypropyl)-5-(3-oxomorpholino)-1H-benzo[d]imidazol-2(3H)-ylidene)-3-(trifluoromethyl)benzamide] | ≤ 100 | ≤ 100
6 | O=C(/N=c1\[nH]c2cc(N3C(=O)CN4CCC3CC4)ccc2n1CCCO)c1cccc(C(F)F)c1 [Example 212, (E)-3-(difluoromethyl)-N-(1-(3-hydroxypropyl)-5-(3-oxo-1,4-diazabicyclo[3.2.2]nonan-4-yl)-1H-benzo[d]imidazol-2(3H)-ylidene)benzamide] | 100 to 1000 | ≤ 100
7 | O=C(/N=c1\[nH]c2cc(N3CC4CC(N4)C3=O)ccc2n1CCCO)c1cccc(C(F)F)c1 (centres unmarked) [Example 213, (E)-3-(difluoromethyl)-N-(1-(3-hydroxypropyl)-5-(2-oxo-3,6-diazabicyclo[3.1.1]heptan-3-yl)-1H-benzo[d]imidazol-2(3H)-ylidene)benzamide] | 100 to 1000 | ≤ 100
8 | O=C(/N=c1\[nH]c2cc(N3CC4CCC(C3=O)N4C3CC3)ccc2n1CCCO)c1cccc(C(F)F)c1 (centres unmarked) [Example 214, (E)-N-(5-(8-cyclopropyl-2-oxo-3,8-diazabicyclo[3.2.1]octan-3-yl)-1-(3-hydroxypropyl)-1H-benzo[d]imidazol-2(3H)-ylidene)-3-(difluoromethyl)benzamide] | 100 to 1000 | ≤ 100
9 | O=C(/N=c1\[nH]c2cc(N3CC4CCC(C3=O)N4C3CC3)ccc2n1CCCO)c1cccc(C(F)(F)F)c1 (centres unmarked) [Example 215, (E)-N-(5-(8-cyclopropyl-2-oxo-3,8-diazabicyclo[3.2.1]octan-3-yl)-1-(3-hydroxypropyl)-1H-benzo[d]imidazol-2(3H)-ylidene)-3-(trifluoromethyl)benzamide] | > 1000 | ≤ 100
10 | O=C(/N=c1\[nH]c2cc(N3CC4CC(N4)C3=O)ccc2n1CCCO)c1cccc(C(F)(F)F)c1 (centres unmarked) [Example 216, (E)-N-(1-(3-hydroxypropyl)-5-(2-oxo-3,6-diazabicyclo[3.1.1]heptan-3-yl)-1H-benzo[d]imidazol-2(3H)-ylidene)-3-(trifluoromethyl)benzamide] | 100 to 1000 | ≤ 100
11 | O=C(/N=c1\[nH]c2cc(N3CC4CCC(O4)C3=O)ccc2n1CCCO)c1cccc(C(F)(F)F)c1 (centres unmarked) [Example 217, (E)-N-(1-(3-hydroxypropyl)-5-(2-oxo-8-oxa-3-azabicyclo[3.2.1]octan-3-yl)-1H-benzo[d]imidazol-2(3H)-ylidene)-3-(trifluoromethyl)benzamide] | 100 to 1000 | ≤ 100
12 | CC1(C)CCOC(=O)N1c1ccc2c(c1)[nH]/c(=N\C(=O)c1cccc(C(F)F)c1)n2CCCO [Example 218, (E)-3-(difluoromethyl)-N-(5-(4,4-dimethyl-2-oxo-1,3-oxazinan-3-yl)-1-(3-hydroxypropyl)-1H-benzo[d]imidazol-2(3H)-ylidene)benzamide] | ≤ 100 | ≤ 100
13 | CC1(C)CCOC(=O)N1c1ccc2[nH]c(=NC(=O)c3cccc(C(F)F)c3)n(CCCO)c2c1 [Example 219] | 100 to 1000 | ≤ 100
14 | CC1(C)CCOC(=O)N1c1ccc2c(c1)[nH]/c(=N\C(=O)c1cccc(C(F)(F)F)c1)n2CCCO [Example 220, (E)-3-(trifluoromethyl)-N-(5-(4,4-dimethyl-2-oxo-1,3-oxazinan-3-yl)-1-(3-hydroxypropyl)-1H-benzo[d]imidazol-2(3H)-ylidene)benzamide] | ≤ 100 | ≤ 100
15 | CC1(C)CCOC(=O)N1c1ccc2[nH]c(=NC(=O)c3cccc(C(F)(F)F)c3)n(CCCO)c2c1 [Example 221] | 100 to 1000 | ≤ 100
16 | CC1(C)OCCN(c2ccc3c(c2)[nH]/c(=N\C(=O)c2cccc(C(F)F)c2)n3CCCO)C1=O [Example 222, (E)-3-(difluoromethyl)-N-(5-(2,2-dimethyl-3-oxomorpholino)-1-(3-hydroxypropyl)-1H-benzo[d]imidazol-2(3H)-ylidene)benzamide] | 100 to 1000 | ≤ 100
17 | CC1(C)OCCN(c2ccc3c(c2)[nH]/c(=N\C(=O)c2cccc(C(F)(F)F)c2)n3CCCO)C1=O [Example 223, (E)-3-(trifluoromethyl)-N-(5-(2,2-dimethyl-3-oxomorpholino)-1-(3-hydroxypropyl)-1H-benzo[d]imidazol-2(3H)-ylidene)benzamide] | ≤ 100 | ≤ 100
18 | CN1CCCN(c2ccc3c(c2)[nH]/c(=N\C(=O)c2cccc(C(F)(F)F)c2)n3CCCO)C1=O [Example 224, (E)-N-(1-(3-hydroxypropyl)-5-(3-methyl-2-oxotetrahydropyrimidin-1(2H)-yl)-1H-benzo[d]imidazol-2(3H)-ylidene)-3-(trifluoromethyl)benzamide] | 100 to 1000 | ≤ 100
19 | CN1CCCN(c2ccc3c(c2)[nH]/c(=N\C(=O)c2cccc(C(F)F)c2)n3CCCO)C1=O [Example 225, (E)-N-(1-(3-hydroxypropyl)-5-(3-methyl-2-oxotetrahydropyrimidin-1(2H)-yl)-1H-benzo[d]imidazol-2(3H)-ylidene)-3-(difluoromethyl)benzamide] | 100 to 1000 | ≤ 100
20 | CC(F)(CO)Cn1/c(=N/C(=O)c2cccc(C(F)(F)F)c2)[nH]c2cc(N3CCCOC3=O)ccc21 (centres unmarked) [Example 226, (E)-N-(1-(2-fluoro-3-hydroxy-2-methylpropyl)-5-(2-oxo-1,3-oxazinan-3-yl)-1H-benzo[d]imidazol-2(3H)-ylidene)-3-(trifluoromethyl)benzamide] | ≤ 100 | ≤ 100
21 | O=C(/N=c1\[nH]c2cc(N3CCCOC3=O)ccc2n1CC1(F)COC1)c1cccc(C(F)F)c1 [Example 227, (E)-3-(difluoromethyl)-N-(1-((3-fluorooxetan-3-yl)methyl)-5-(2-oxo-1,3-oxazinan-3-yl)-1H-benzo[d]imidazol-2(3H)-ylidene)benzamide] | 100 to 1000 | ≤ 100
22 | O=C(/N=c1\[nH]c2cc(N3CCCOC3=O)ccc2n1CC1(F)CCOCC1)c1cccc(C(F)F)c1 [Example 228, (E)-3-(difluoromethyl)-N-(1-((4-fluorotetrahydro-2H-pyran-4-yl)methyl)-5-(2-oxo-1,3-oxazinan-3-yl)-1H-benzo[d]imidazol-2(3H)-ylidene)benzamide] | 100 to 1000 | ≤ 100
23 | O=C(/N=c1\[nH]c2cc(N3CCCOC3=O)ccc2n1CC1(F)CCOCC1)c1cccc(C(F)(F)F)c1 [Example 229, (E)-N-(1-((4-fluorotetrahydro-2H-pyran-4-yl)methyl)-5-(2-oxo-1,3-oxazinan-3-yl)-1H-benzo[d]imidazol-2(3H)-ylidene)-3-(trifluoromethyl)benzamide] | 100 to 1000 | ≤ 100
24 | N#Cc1cccc(C(=O)/N=c2\[nH]c3cc(N4CCCOC4=O)ccc3n2CC2(F)CCOCC2)c1 [Example 230, (E)-3-cyano-N-(1-((4-fluorotetrahydro-2H-pyran-4-yl)methyl)-5-(2-oxo-1,3-oxazinan-3-yl)-1H-benzo[d]imidazol-2(3H)-ylidene)benzamide] | 100 to 1000 | ≤ 100
25 | CC(=O)c1cccc(C(=O)/N=c2\[nH]c3cc(N4CCOCC4=O)ccc3n2CCCO)c1 [Example 231, (E)-3-acetyl-N-(1-(3-hydroxypropyl)-5-(3-oxomorpholino)-1H-benzo[d]imidazol-2(3H)-ylidene)benzamide] | 100 to 1000 | ≤ 100
